Data taken from patent publication US20170355705A1 (GlaxoSmithKline Intellectual Property (No.2) Limited, priority 2014, published 2017).

Biological target: T1, SIRT1 (Homo sapiens, UniProt Q96EB6)
T1 sequence (Q96EB6 1-747): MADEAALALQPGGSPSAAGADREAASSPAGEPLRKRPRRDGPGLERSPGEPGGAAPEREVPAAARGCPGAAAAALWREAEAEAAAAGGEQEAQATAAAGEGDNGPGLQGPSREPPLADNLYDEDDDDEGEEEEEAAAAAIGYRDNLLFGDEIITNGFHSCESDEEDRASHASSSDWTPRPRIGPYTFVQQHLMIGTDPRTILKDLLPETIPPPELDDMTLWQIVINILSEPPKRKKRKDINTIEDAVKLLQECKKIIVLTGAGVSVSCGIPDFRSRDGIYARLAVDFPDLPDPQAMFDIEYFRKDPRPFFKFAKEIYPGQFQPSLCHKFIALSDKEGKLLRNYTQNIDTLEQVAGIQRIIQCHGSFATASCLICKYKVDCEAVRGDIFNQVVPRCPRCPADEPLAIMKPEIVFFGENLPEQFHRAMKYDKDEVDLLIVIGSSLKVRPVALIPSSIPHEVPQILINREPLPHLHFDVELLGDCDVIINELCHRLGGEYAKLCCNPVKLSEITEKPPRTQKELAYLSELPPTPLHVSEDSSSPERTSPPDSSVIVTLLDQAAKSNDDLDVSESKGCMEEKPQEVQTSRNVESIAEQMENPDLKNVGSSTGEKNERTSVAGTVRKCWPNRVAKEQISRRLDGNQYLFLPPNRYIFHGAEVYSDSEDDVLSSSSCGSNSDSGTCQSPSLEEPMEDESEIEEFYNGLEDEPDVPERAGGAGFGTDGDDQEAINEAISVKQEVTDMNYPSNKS
Experiment: Trp mass spectrometry assay of SIRT1 activity (EC1.5, percent maximum activation)
Format: biochemical
Conditions: Trp mass spectrometry assay; for TRP Activity (EC1.5): EC1.5 = concentration giving 150% activation of SIRT1
How it was run: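 MS readout: O-acetyl-ADP-ribose (or deacetylated peptide) formed by His-tagged SIRT1 (BL21(DE3)-expressed) on 5TMR-Trp p53-based peptide, 25 min, formic acid stop. EC1.5 = concentration raising activity 50% over no-compound control; % max activation vs control = 100%.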

[1] = percent maximum activation of SIRT1
[2] = 0.5 μM peptide substrate, 120 μM βNAD+, 10 nM SIRT1, 25 minutes at 25° C.

Row | SMILES | TRP Activity (EC1.5) | TRP MAX RESP (percent maximum fold activation) [1] | TRP MAX RESP (percent maximum fold activation) [2] | TRP Activity (EC1.5, concentration of test compound that results in 150% activation of SIRT1) [2]
1 | Cc1ccc(-c2cc(C)c3c(n2)N(C(=O)Nc2ccccn2)[C@H]2CCN3C2)cn1 [Example 9, (4S)-9-methyl-7-(6-methylpyridin-3-yl)-N-(pyridin-2-yl)-3,4-dihydro-1,4-methanopyrido[2,3-b][1,4]diazepine-5(2H)-carboxamide] | B (EC1.5 1-25 μM) | A (Fold activation ≧150%) |  | 
2 | Cc1cc(-c2ccc3c(n2)N(C(=O)Nc2cc(-c4cnc(C)s4)ccn2)[C@H]2CCN3C2)ccn1 [Example 295] |  |  | A (Fold activation ≧150%) | 
3 | CCc1ccc(-c2ccc3c(n2)N(C(=O)Nc2cnccn2)[C@H]2CCN3C2)cn1 [Example 156, (4S)-7-(6-ethylpyridin-3-yl)-N-(pyrazin-2-yl)-3,4-dihydro-1,4-methanopyrido[2,3-b][1,4]diazepine-5(2H)-carboxamide] | B (EC1.5 1-25 μM) | A (Fold activation ≧150%) |  | 
4 | O=C(Nc1cnccn1)N1c2nc(-c3ccc(C(F)(F)F)nc3)ccc2N2CC[C@H]1C2 [Example 208, (4S)-N-(pyrazin-2-yl)-7-(6-(trifluoromethyl)pyridin-3-yl)-3,4-dihydro-1,4-methanopyrido[2,3-b][1,4]diazepine-5(2H)-carboxamide] |  |  | A (Fold activation ≧150%) | B (EC1.5 1-25 μM)
5 | Cc1cc(-c2nc3c(cc2F)N2CC[C@@H](C2)N3C(=O)Nc2cccnc2)ccn1 [Example 14, (4S)-8-fluoro-7-(2-methylpyridin-4-yl)-N-(pyridin-3-yl)-3,4-dihydro-1,4-methanopyrido[2,3-b][1,4]diazepine-5(2H)-carboxamide] | B (EC1.5 1-25 μM) | A (Fold activation ≧150%) |  | 
6 | O=C(Nc1cc(OC[C@H](O)CO)ccn1)N1c2nc(-c3cccc(C(F)(F)F)c3)c(Cl)cc2N2CC[C@H]1C2 [Example 31, (4S)-8-chloro-N-(4-((R)-2,3-dihydroxypropoxy)pyridin-2-yl)-7-(3-(trifluoromethyl)phenyl)-3,4-dihydro-1,4-methanopyrido[2,3-b][1,4]diazepine-5(2H)-carboxamide] | B (EC1.5 1-25 μM) | A (Fold activation ≧150%) |  | 
7 | O=C(Nc1cncc(OC[C@@H](O)CO)c1)N1c2nc(-c3cccc(C(F)(F)F)c3)c(Cl)cc2N2CC[C@H]1C2 [Example 78, (4S)-8-chloro-N-(5-((S)-2,3-dihydroxypropoxy)pyridin-3-yl)-7-(3-(trifluoromethyl)phenyl)-3,4-dihydro-1,4-methanopyrido[2,3-b][1,4]diazepine-5(2H)-carboxamide] | A (EC1.5<1 μM) | A (Fold activation ≧150%) |  | 
8 | Cc1cc(-c2ccc3c(n2)N(C(=O)Nc2cc(-n4ccnn4)ccn2)[C@H]2CCN3C2)ccn1 [Example 341] |  |  | A (Fold activation ≧150%) | 
9 | Cc1cc(-c2ccc3c(n2)N(C(=O)Nc2cncc(F)n2)[C@H]2CCN3C2)ccn1 [Example 190, (4S)-N-(6-fluoropyrazin-2-yl)-7-(2-methylpyridin-4-yl)-3,4-dihydro-1,4-methanopyrido[2,3-b][1,4]diazepine-5(2H)-carboxamide] | A (EC1.5<1 μM) | A (Fold activation ≧150%) |  | 
10 | Cc1cc(-c2ccc3c(n2)N(C(=O)Nc2cncnc2)[C@H]2CCN3C2)ccn1 [Example 163, (4S)-7-(2-methylpyridin-4-yl)-N-(pyrimidin-5-yl)-3,4-dihydro-1,4-methanopyrido[2,3-b][1,4]diazepine-5(2H)-carboxamide] | C (EC1.5>25 μM) | A (Fold activation ≧150%) |  | 
11 | CC(C)(O)CCOc1nccc(NC(=O)N2c3nc(-c4cccc(C(F)(F)F)c4)c(Cl)cc3N3CC[C@H]2C3)n1 [Example 48, (4S)-8-chloro-N-(2-(3-hydroxy-3-methylbutoxy)pyrimidin-4-yl)-7-(3-(trifluoromethyl)phenyl)-3,4-dihydro-1,4-methanopyrido[2,3-b][1,4]diazepine-5(2H)-carboxamide] | B (EC1.5 1-25 μM) | A (Fold activation ≧150%) |  | 
12 | Cc1cc(-c2nc3c(cc2Cl)N2CC[C@@H](C2)N3C(=O)Nc2cncc(OC[C@@H](O)CO)c2)ccn1 [Example 110, (4S)-8-chloro-N-(5-((S)-2,3-dihydroxypropoxy)pyridin-3-yl)-7-(2-methylpyridin-4-yl)-3,4-dihydro-1,4-methanopyrido[2,3-b][1,4]diazepine-5(2H)-carboxamide] | B (EC1.5 1-25 μM) | A (Fold activation ≧150%) |  | 
13 | Cc1cc(-c2cc(C)c3c(n2)N(C(=O)Nc2cccnc2)[C@H]2CCN3C2)ccn1 [Example 84, (4S)-9-methyl-7-(2-methylpyridin-4-yl)-N-(pyridin-3-yl)-3,4-dihydro-1,4-methanopyrido[2,3-b][1,4]diazepine-5(2H)-carboxamide] | A (EC1.5<1 μM) | A (Fold activation ≧150%) |  | 
14 | Cc1cc(-c2nc3c(cc2Cl)N2CC[C@@H](C2)N3C(=O)Nc2ccnc(OC[C@@H](O)CO)n2)ccn1 [Example 94, (4S)-8-chloro-N-(2-((S)-2,3-dihydroxypropoxy)pyrimidin-4-yl)-7-(2-methylpyridin-4-yl)-3,4-dihydro-1,4-methanopyrido[2,3-b][1,4]diazepine-5(2H)-carboxamide] | C (EC1.5>25 μM) | B (Fold Activation <150%) |  | 
15 | Cc1cc(-c2ccc3c(n2)N(C(=O)N2CCO[C@@H](C)C2)[C@H]2CCN3C2)ccn1.Cl [Example 234, ((S)-2-methylmorpholino)((4S)-7-(2-methylpyridin-4-yl)-3,4-dihydro-1,4-methanopyrido[2,3-b][1,4]diazepin-5(2H)-yl)methanone hydrochloride] |  |  | B (Fold Activation <150%) | C (EC1.5>25 μM)
16 | Cc1cc(-c2ccc3c(n2)N(C(=O)N2CCC(C)C2)[C@H]2CCN3C2)ccn1 (single isomer, unassigned) [Example 193] | C (EC1.5>25 μM) | B (Fold Activation <150%) |  | 
17 | Cc1cc(-c2ccc3c(n2)N(C(=O)Nc2cnccn2)[C@H]2CCN3C2)cc(C(F)(F)F)n1 [Example 223, (4S)-7-(2-methyl-6-(trifluoromethyl)pyridin-4-yl)-N-(pyrazin-2-yl)-3,4-dihydro-1,4-methanopyrido[2,3-b][1,4]diazepine-5(2H)-carboxamide] |  |  | A (Fold activation ≧150%) | A (EC1.5<1 μM)
18 | Cc1cc(-c2ccc3c(n2)N(C(=O)N2CCCCC2)[C@H]2CCN3C2)ccn1 [Example 151, ((4S)-7-(2-methylpyridin-4-yl)-3,4-dihydro-1,4-methanopyrido[2,3-b][1,4]diazepin-5(2H)-yl)(piperidin-1-yl)methanone] | C (EC1.5>25 μM) | B (Fold Activation <150%) |  | 
